From BindingDB's records for patent US10889592 (VALO EARLY DISCOVERY, INC., 2021) come the findings set out here.

In assay [1] the target is T1, Ubiquitin carboxyl-terminal hydrolase 28 (Homo sapiens, UniProt Q96RU2).
T1 sequence (Q96RU2 whole entry): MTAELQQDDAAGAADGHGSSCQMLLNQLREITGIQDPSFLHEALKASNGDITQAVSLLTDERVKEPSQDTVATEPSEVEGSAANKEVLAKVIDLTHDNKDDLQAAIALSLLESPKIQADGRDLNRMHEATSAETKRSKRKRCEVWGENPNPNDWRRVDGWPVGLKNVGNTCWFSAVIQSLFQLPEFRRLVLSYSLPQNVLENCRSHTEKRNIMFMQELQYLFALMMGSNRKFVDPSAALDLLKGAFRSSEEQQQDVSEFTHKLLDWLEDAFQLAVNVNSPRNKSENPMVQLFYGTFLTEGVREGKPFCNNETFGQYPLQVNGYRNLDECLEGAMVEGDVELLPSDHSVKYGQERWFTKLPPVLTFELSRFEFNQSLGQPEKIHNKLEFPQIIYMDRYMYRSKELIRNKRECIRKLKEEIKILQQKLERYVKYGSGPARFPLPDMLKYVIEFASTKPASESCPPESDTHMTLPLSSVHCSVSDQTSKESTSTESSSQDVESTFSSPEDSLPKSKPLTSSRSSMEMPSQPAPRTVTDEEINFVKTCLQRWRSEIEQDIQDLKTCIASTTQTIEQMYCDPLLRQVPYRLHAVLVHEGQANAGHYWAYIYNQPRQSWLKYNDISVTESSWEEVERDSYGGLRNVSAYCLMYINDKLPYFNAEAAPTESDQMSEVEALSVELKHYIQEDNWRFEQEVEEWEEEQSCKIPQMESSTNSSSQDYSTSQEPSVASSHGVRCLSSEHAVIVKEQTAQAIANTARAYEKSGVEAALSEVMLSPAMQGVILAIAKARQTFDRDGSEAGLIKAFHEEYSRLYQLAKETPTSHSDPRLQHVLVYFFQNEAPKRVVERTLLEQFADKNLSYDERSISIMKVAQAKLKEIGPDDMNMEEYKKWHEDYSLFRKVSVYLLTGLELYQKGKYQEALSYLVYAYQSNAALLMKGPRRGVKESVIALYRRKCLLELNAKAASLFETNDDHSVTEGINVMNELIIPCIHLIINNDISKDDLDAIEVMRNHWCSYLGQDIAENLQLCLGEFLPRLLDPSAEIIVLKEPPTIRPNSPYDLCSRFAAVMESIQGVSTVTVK
Description: Biochemical Assay. How it is done: USP28: Each assay was performed in a final volume of 20 μL in assay buffer containing 20 mM Tris-HCl (pH 8.0, (1M Tris-HCl, pH 8.0 solution; Corning 46-031-CM)), 2 mM CaCl2) (1M Calcium Chloride solution; Sigma #21114) 2 mM BME (2-Mercaptoethanol; Sigma 63689-25ML-F), 0.01% Prionex (0.22 μM filtered, Sigma # G-0411), and 0.01% Triton X-100. Stock compound solutions were stored at −20° C. as 10 mM in DMSO. Up to 1 month prior to the assay, 2 mM test compounds were pre-dispensed into assay plates (Black, low volume; Corning #3820) and frozen at −20° C. Prestamped assay plates were allowed to come to room temperature on the day of the assay. For the screen, 100 nL of 2 mM was pre-dispensed for a final screening concentration of 10 μM (DMSO(fc)=0.5%). […] Plates were incubated stacked for 90 minutes at room temperature before fluorescence was read on the Envision (Excitation at 485 nm and Emission at 535 nm; Perkin Elmer) or on the PheraSTAR (Excitation at 485 nm and Emission at 535 nm; BMG Labtech).

Assay [2] concerns the target T2, Ubiquitin carboxyl-terminal hydrolase 25 (Homo sapiens, UniProt Q9UHP3).
T2 sequence (Q9UHP3 whole entry): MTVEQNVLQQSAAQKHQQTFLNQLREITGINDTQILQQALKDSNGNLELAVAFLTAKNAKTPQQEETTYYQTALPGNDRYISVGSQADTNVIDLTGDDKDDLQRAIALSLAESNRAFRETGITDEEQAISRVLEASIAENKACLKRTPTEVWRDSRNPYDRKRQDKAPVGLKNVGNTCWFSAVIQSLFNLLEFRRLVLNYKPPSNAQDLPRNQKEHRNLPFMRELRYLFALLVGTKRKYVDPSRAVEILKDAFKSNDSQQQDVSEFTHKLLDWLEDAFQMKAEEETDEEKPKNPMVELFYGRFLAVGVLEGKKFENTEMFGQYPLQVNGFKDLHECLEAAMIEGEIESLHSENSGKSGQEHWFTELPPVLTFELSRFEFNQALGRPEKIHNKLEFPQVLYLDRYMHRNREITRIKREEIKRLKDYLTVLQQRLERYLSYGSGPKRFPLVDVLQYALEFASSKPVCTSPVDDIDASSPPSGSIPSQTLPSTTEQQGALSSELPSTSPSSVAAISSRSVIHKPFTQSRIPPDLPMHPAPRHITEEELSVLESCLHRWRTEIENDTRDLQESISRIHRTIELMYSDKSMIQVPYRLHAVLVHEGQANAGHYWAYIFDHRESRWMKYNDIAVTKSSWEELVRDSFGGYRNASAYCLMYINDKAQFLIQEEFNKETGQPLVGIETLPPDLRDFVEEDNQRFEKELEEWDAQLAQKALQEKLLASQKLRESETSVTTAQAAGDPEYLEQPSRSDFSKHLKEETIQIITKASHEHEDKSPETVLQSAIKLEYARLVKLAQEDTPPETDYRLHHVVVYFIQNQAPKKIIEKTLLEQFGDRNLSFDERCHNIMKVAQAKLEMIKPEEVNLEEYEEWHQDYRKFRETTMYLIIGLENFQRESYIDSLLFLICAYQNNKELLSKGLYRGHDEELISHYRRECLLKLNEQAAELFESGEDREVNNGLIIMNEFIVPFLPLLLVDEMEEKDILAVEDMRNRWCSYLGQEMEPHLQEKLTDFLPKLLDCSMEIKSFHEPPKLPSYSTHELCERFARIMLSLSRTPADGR
Put plainly: Biochemical Assay. The method, then:
USP25: The assay was performed in a final volume of 9 μL in assay buffer containing 20 mM Tris-HCl (pH 8.0, (1M Tris-HCl, pH 8.0 solution; Corning 46-031-CM)), 3 mM BME (2-Mercaptoethanol; Sigma 63689-25ML-F), 0.03% BGG (0.22 μM filtered. Sigma, G7516-25G), and 0.01% Triton X-100 (Sigma, T9284-10L). Nanoliter quantities of 10-point, 3-fold serial dilution in DMSO was pre-dispensed into 1536 assay plates (Corning, #3724BC) for a final test concentration of 25 μM to 1.3 nM, top to lowest dose, respectively. Enzyme USP25, construct USP25-His6, (Boston Biochem E-546). Concentration and incubation times were optimized for the maximal signal-to-background while maintaining initial velocity conditions at a fixed substrate concentration. The final concentration of the enzyme in the assay was 75 pM. Final substrate (Ub-Rh110 Ubiquitin-Rhodamine 110, R&D Systems # U-555) concentration was 25 nM with [Ub-Rh110]<<Km. 3 μL of 2× enzyme was added to assay plates (pre-stamped with compound) preincubated with […] for 30 minutes and then 3 μL of 2×Ub-Rh110 was added to assay plates. […] Fluorescence was read on the Envision (Excitation at 485 nm and Emission at 535 nm; Perkin Elmer) or on the PheraSTAR (Excitation at 485 nm and Emission at 535 nm; BMG Labtech).

What is called IC50 is the midpoint of a concentration-inhibition curve. Lower therefore signals inhibition by little substance. As to `Cc1cnc2c(N)c(C(=O)NCCc3c(F)cc(N4C5CCC4CNC5)cc3F)sc2n1` [US10889592, Compound I-11], the IC50 result in assay [1] and in assay [2] was “in the range around 1100 nM” in each case.

Regarding `Cc1cnc2c(N)c(C(=O)NCCc3ccc(N4C5CCC4CNC5)cc3F)sc2n1` [US10889592, Compound I-10], the IC50 is under 200 nM in assay [1] and “in the range around 1100 nM” in assay [2].
